Measured values taken from ChEMBL document CHEMBL1201862, “PubChem BioAssay data set” (2004).
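Briefly, cells in 96-well plates were exposed to five compound concentrations for 48 h, and endpoints were estimated by linear interpolation. Abbreviation: GI50, concentration required for 50% inhibition of growth.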 Calls of active or inactive are those of the source. Rule as the data show it: active = GI50 up to about 1.1 µM and inactive = higher.

Experiments:
Experiment in all cases: DTP human tumour cell line panel, 48 h
786-0 = test system: 786-0
DU-145 = test system: DU-145
HT-29 = test system: HT-29
Hs-578T = test system: Hs-578T
K562 = test system: K562
M14 = test system: M14
OVCAR-8 = test system: OVCAR-8
SF-268 = test system: SF-268
SF-295 = test system: SF-295
SK-MEL-2 = test system: SK-MEL-2
SK-MEL-5 = test system: SK-MEL-5
SNB-75 = test system: SNB-75
SW-620 = test system: SW-620
T47D = test system: T47D
U-251 = test system: U-251
UACC-62 = test system: UACC-62
PC-3 = test system: PC-3

Measured: GI50

COc1ccc(OC)c(-c2cc(=O)c3c(OC)c(OC)c(OC)c(OC)c3o2)c1
inactive: 786-0 27.4 µM | DU-145 25.8 µM | HT-29 33.6 µM | Hs-578T 37.6 µM | K562 22.2 µM | M14 36.1 µM | OVCAR-8 25.7 µM | SF-268 36 µM | SF-295 18.7 µM | SK-MEL-2 20 µM | SK-MEL-5 12.4 µM | SNB-75 46.8 µM | SW-620 33 µM | T47D 2.13 µM | U-251 28.4 µM | UACC-62 24.3 µM

CN(C)C1(N(C)C)Oc2c(c(=O)n(C)c(=O)n2C)C(c2ccccc2Br)C1(F)F (stereo unspecified)
inactive: 786-0 > 100 µM | DU-145 > 100 µM | K562 > 100 µM | M14 > 100 µM | PC-3 > 100 µM | SF-268 > 100 µM | SF-295 > 100 µM | SK-MEL-2 > 100 µM | SK-MEL-5 > 100 µM | SNB-75 > 100 µM | SW-620 > 100 µM | T47D > 100 µM | U-251 > 100 µM | UACC-62 > 100 µM

CCOC(=O)c1cc(C#N)[nH]c1-c1ccsc1
inactive: 786-0 44 µM | DU-145 24.3 µM | HT-29 28.8 µM | Hs-578T 25.7 µM | K562 25.6 µM | M14 41.7 µM | OVCAR-8 36.6 µM | PC-3 25.5 µM | SF-268 22.8 µM | SF-295 38 µM | SK-MEL-2 46.7 µM | SK-MEL-5 34.9 µM | SNB-75 22.5 µM | SW-620 31.3 µM | U-251 25.8 µM | UACC-62 47.1 µM

C[C@H]1[C@H](C)CC[C@]2(C)CC[C@]3(C)C(=C[C@@H](O)[C@@H]4[C@@]5(C)[C@H](O)[C@@H](O)[C@H](O)C(C)(C)[C@@H]5CC[C@]43C)[C@H]12
inactive: 786-0 > 100 µM | DU-145 > 100 µM | HT-29 > 100 µM | Hs-578T > 100 µM | K562 > 100 µM | M14 > 100 µM | OVCAR-8 > 100 µM | PC-3 > 100 µM | SF-268 > 100 µM | SF-295 > 100 µM | SK-MEL-2 > 100 µM | SK-MEL-5 > 100 µM | SW-620 > 100 µM | U-251 > 100 µM | UACC-62 > 100 µM

Cc1cc(C)nc(NC(P(=O)(O)O)P(=O)(O)O)n1
inactive: 786-0 > 100 µM | DU-145 > 100 µM | HT-29 > 100 µM | Hs-578T > 100 µM | M14 > 100 µM | OVCAR-8 > 100 µM | PC-3 > 100 µM | SF-268 > 100 µM | SF-295 > 100 µM | SK-MEL-5 > 100 µM | UACC-62 > 100 µM

CC1=NN(c2cccc(Cl)c2)C2(SCC(=O)N2c2nc3ccccc3s2)/C1=C\c1ccc(Cl)cc1 (stereo unspecified)
inactive: 786-0 21.6 µM | DU-145 18.4 µM | HT-29 19.4 µM | Hs-578T 19.4 µM | K562 14.4 µM | M14 19.8 µM | OVCAR-8 18.9 µM | PC-3 15.7 µM | SF-268 17.9 µM | SF-295 17 µM | SK-MEL-2 16.7 µM | SK-MEL-5 13.8 µM | SW-620 14.4 µM | T47D 24.8 µM | U-251 13.8 µM

C=CC[C@H](C)CCC(=O)N1[C@H]2CC3CC[C@@]2(CS1(=O)=O)C3(C)C
inactive: 786-0 50.6 µM | DU-145 > 100 µM | HT-29 18.8 µM | Hs-578T 30.6 µM | M14 35.6 µM | OVCAR-8 45.4 µM | PC-3 40.3 µM | SF-268 41.7 µM | SF-295 45.2 µM | SK-MEL-2 50.2 µM | SK-MEL-5 21.5 µM | SW-620 79.8 µM | T47D 42.6 µM | U-251 56.1 µM | UACC-62 > 100 µM

C[C@]12CCC(=O)C=C1CC[C@@H]1[C@@H]2CC[C@]2(C)C(=O)[C@H](n3ccnc3)C[C@@H]12
inactive: 786-0 > 100 µM | DU-145 > 100 µM | HT-29 27.4 µM | Hs-578T > 100 µM | K562 75.3 µM | M14 > 100 µM | OVCAR-8 > 100 µM | PC-3 > 100 µM | SF-268 > 100 µM | SF-295 > 100 µM | SK-MEL-2 > 100 µM | SK-MEL-5 63.1 µM | SNB-75 > 100 µM | SW-620 > 100 µM | U-251 > 100 µM | UACC-62 > 100 µM

Cn1c([C@H](C#N)c2ncccc2[N+](=O)[O-])nc2ccccc21
inactive: 786-0 31.8 µM | HT-29 > 100 µM | Hs-578T 29.9 µM | K562 > 100 µM | M14 > 100 µM | OVCAR-8 49.3 µM | PC-3 86.1 µM | SF-268 36 µM | SF-295 28.4 µM | SK-MEL-2 40.6 µM | SNB-75 28.2 µM | SW-620 > 100 µM | U-251 34.8 µM | UACC-62 > 100 µM

O=C(O)CSC(NC(=O)C(C(F)(F)F)C(F)(F)F)(C(F)(F)F)C(F)(F)F
inactive: 786-0 > 100 µM | HT-29 > 100 µM | Hs-578T > 100 µM | K562 > 100 µM | M14 > 100 µM | OVCAR-8 23.2 µM | PC-3 > 100 µM | SF-268 > 100 µM | SK-MEL-2 > 100 µM | SK-MEL-5 > 100 µM | SNB-75 > 100 µM | SW-620 > 100 µM | T47D > 100 µM | U-251 > 100 µM

CS(=O)(=O)OCCCSCCSCCCOS(C)(=O)=O
inactive: 786-0 > 100 µM | DU-145 > 100 µM | HT-29 > 100 µM | K562 > 100 µM | M14 > 100 µM | OVCAR-8 > 100 µM | PC-3 > 100 µM | SF-268 > 100 µM | SF-295 > 100 µM | SK-MEL-5 > 100 µM | SNB-75 > 100 µM | SW-620 > 100 µM | T47D > 100 µM | U-251 > 100 µM | UACC-62 > 100 µM

CC(=O)/C=c1\[nH]/c(=C\C=C\c2ccccc2)c(=O)n1/C=C1\C(=O)Oc2ccccc2C1=O
inactive: 786-0 > 100 µM | DU-145 > 100 µM | HT-29 > 100 µM | Hs-578T > 100 µM | K562 > 100 µM | M14 > 100 µM | OVCAR-8 > 100 µM | PC-3 > 100 µM | SF-268 > 100 µM | SK-MEL-2 > 100 µM | SK-MEL-5 > 100 µM | SNB-75 59.4 µM | SW-620 > 100 µM | U-251 > 100 µM | UACC-62 > 100 µM

CC(C)c1cc(CN(C)C)c(O)c(C(C)(C)C)c1
inactive: 786-0 18.5 µM | DU-145 36.4 µM | HT-29 36.2 µM | Hs-578T 22.6 µM | M14 28.4 µM | OVCAR-8 30.3 µM | PC-3 21.6 µM | SF-268 22 µM | SF-295 19 µM | SK-MEL-2 18.1 µM | SK-MEL-5 14.9 µM | SW-620 20.2 µM | T47D 24.7 µM | U-251 16.4 µM | UACC-62 54.1 µM
